Here are results for seven molecules from patent US20250129012A1, “ANTI-INFLAMMATORY AND ANALGESIC COMPOUNDS AND USE THEREOF” (JIANGSU ATOM BIOSCIENCE AND PHARMACEUTICAL CO., LTD., priority 2021, published 2025).

Where two headings read alike, the source gives them in different places. Marks after values point to notes of the source that are not given here.

What all share (format): in vivo, SD rats
Assay [1] relates to gouty arthritis rats (sodium urate, right ankle and knee joint cavities). The assay is described as follows: Pharmacodynamics experiment B on gouty arthritis rats: gait score. The conditions noted are these: for Gait Score: dose 0.6 mg/kg gavage, mean; for Gait versus model group, in words: compounds 0.6 mg/kg, colchicine 0.6 and 1.2 mg/kg. On the procedure: (§1) Compounds 12, 16, 19, 30, 34, 36, 38, 40, 44, 48, 49, 52, 58, 69, 83, 98, 102, 119, 121, and 122 were prepared by grinding with 0.5% CMC-Na prior to administration and formulated into suspensions of appropriate concentration (0.12 mg/mL) for gavage, with an administered dose of 0.5 mL/100 g.
(§2) 240 SD rats, males, were acclimatized for one week and weighed 180-220 g. […] The dose of each compound group was 0.6 mg/kg. The compounds in each group were prepared into the corresponding concentration suspension, and the volume of administration was 10 mL/kg.
(§3) 250 mg of sodium urate were added to 9 mL of saline, and 1 mL of Tween-80 solution was added, the resulting mixture was heated and stirred to formulate 10 mL of sodium urate solution. The rats were grasped and fixed, and 0.2 mL of sodium urate solution was injected into the right ankle and knee joint cavities respectively to establish gouty arthritis rat model.
(§4) Before modeling, positive drug and tested compounds were pre-administered for 7 days, once a day, and modeling was performed on day 8, and drug administration by gavage continued for 3 days after modeling.
Gait was scored according to the modified gait grading criteria introduced by Coderre et al. The gait of each rat was observed before and 2 h, 4 h, 8 h, 10 h, 24 h and 48 h after modeling and graded scoring was performed. The gait grading criteria were as follows: 0 point, normal walking; 1 point, slight lameness, the lower limbs were slightly bent; 2 points: moderate lameness, the lower limbs just touched the ground; 3 points, severe lameness, the lower limbs left the ground, and walked on three feet. The mean score of each group was calculated and compared with that of the model group.
(§5) Each experimental data was expressed as the mean, and intergroup comparisons were examined for significance using the ANOVA-Dunnett T-test, with P<0.05 as the significance indicator.

For assay [2] the test system is unchanged. The assay is described as follows: Pharmacodynamics experiment B on gouty arthritis rats: ankle swelling rate. The conditions noted are these: Rattus norvegicus, po, read-out: Swelling rate (ankle). On the procedure:
as §1, §2, §3, §4
Before modeling and 2 h, 4 h, 8 h, 10 h, 24 h and 48 h after modeling, the circumference of the right ankle joint was measured using a soft ruler or the volume change at the ankle was measured (volumetric method), and the swelling degree and swelling rate of ankle joint were calculated:
Swelling degree (mm)=measured circumference (mm)−baseline circumference (mm)
Swelling rate (%)=swelling degree (mm)/baseline circumference (mm)×100%
as §5

The subject of the next assay is TNF-α. The assay is described as follows: Inflammatory factor experiment B: TNF-α in knee synovial tissue (ELISA). The conditions noted are these: Rattus norvegicus, po, 48 h, read-out: TNF-α percentage decrease %. (An ELISA detects its analyte on a solid surface through an enzyme-linked reagent.)
The test system of the next assay is IL-1β. The assay is described as follows: Inflammatory factor experiment B: IL-1β in knee synovial tissue (ELISA). The conditions noted are these: Rattus norvegicus, po, 48 h, read-out: IL-1β percentage decrease %.
Another assay has as its system IL-6. The assay is described as follows: Inflammatory factor experiment B: IL-6 in knee synovial tissue (ELISA). The conditions noted are these: Rattus norvegicus, po, 48 h, read-out: IL-6 percentage decrease %.

As to `COc1cc2c(c(OC)c1OC)-c1ccc(-n3ccc(C)n3)c(=O)cc1[C@@H](NC(C)=O)CC2` [Compound 98, (S)—N-{1,2,3-trimethoxy-10-(3-methyl-1H-pyrazol-1-yl)-9-oxo-5,6,7,9-tetrahydrobenzo[a]heptalen-7-yl}acetamide], the “Gait Score” value in assay [1] (2 h) is recorded as 0; in assay [1] (4 h) it was 0; in assay [1] (8 h) it was 0*; in assay [1] (10 h), 0*; in assay [1] (24 h), 0.1; in assay [1] (48 h), 0. Moreover, in assay [1], the “Gait versus model group, in words” value is reported as “significant improvement in gait occurred at different time points”. In addition, the change in vivo at 0.6 mg/kg was 7.9% in assay [2] (2 h); 13.4% in assay [2] (4 h); 16.4% in assay [2] (8 h); 17.7% in assay [2] (10 h); 19.7% in assay [2] (24 h); 8.9% in assay [2] (48 h). In addition, the results for the inhibition in vivo at 0.6 mg/kg in the assay on TNF-α, in the assay on IL-1β and in the assay on IL-6 were 98.9%, 65% and 167%, respectively.

With `CNC(=O)c1cc2c(ccc1=O)-c1c(cc(OC)c(OC)c1OC)CC[C@@H]2NC(C)=O` [Compound 49, (S)-7-acetamido-1,2,3-trimethoxy-N-methyl-10-oxo-5,6,7,10-tetrahydrobenzo[a]heptalen-9-carboxamide], the “Gait Score” value in assay [1] (2 h) is given as 0; in assay [1] (4 h), 0; in assay [1] (8 h), 0*; in assay [1] (10 h), 0*; in assay [1] (24 h), 0.2; in assay [1] (48 h), 0. In addition, the “Gait versus model group, in words” value in assay [1] is given as “significant improvement in gait occurred at different time points”. The change in vivo at 0.6 mg/kg was -1.02% in assay [2] (2 h); 7.38% in assay [2] (4 h); 8.12% in assay [2] (8 h); 16.5% in assay [2] (10 h); 12.9% in assay [2] (24 h); 1.43% in assay [2] (48 h). Also, the inhibition in vivo at 0.6 mg/kg in the assay on TNF-α is 79.2%; in the assay with IL-1β, 69.1%; with IL-6, 78.6%.

With `COc1cc2c(c(OC)c1OC)-c1ccc(-c3cnn(C)c3)c(=O)cc1[C@@H](NC(C)=O)CC2` [Compound 119, (S)—N-{1,2,3-trimethoxy-10-(1-methyl-1H-pyrazol-4-yl)-9-oxo-5,6,7,9-tetrahydrobenzo[a]heptalen-7-yl}acetamide], the “Gait Score” value in assay [1] (2 h) is 0; in assay [1] (4 h) it was 0; in assay [1] (8 h), 0.1*; in assay [1] (10 h), 0.4; in assay [1] (24 h), 0; in assay [1] (48 h) it was 0. For the same molecule, the change in vivo at 0.6 mg/kg worked out at 10.4% in assay [2] (2 h); 14.1% in assay [2] (4 h); 19.4% in assay [2] (8 h); 22.2% in assay [2] (10 h); 15.8% in assay [2] (24 h); 5.3% in assay [2] (48 h). The results for the inhibition in vivo at 0.6 mg/kg in the assay with TNF-α, in the assay on IL-1β and with IL-6 were 105%, 85.5% and 169%, respectively.

As for `COc1cc2c(c(OC)c1OC)-c1ccc(C#N)c(=O)cc1[C@@H](NC(C)=O)CC2` [Compound 38, (S)—N-(10-cyano-1,2,3-trimethoxy-9-oxo-5,6,7,9-tetrahydrobenzo[a]heptalen-7-yl)acetamide], the “Gait Score” value is recorded as 0 in assay [1] (2 h); 0 in assay [1] (4 h); 0* in assay [1] (8 h); 0* in assay [1] (10 h); 0 in assay [1] (24 h); 0 in assay [1] (48 h). Also, in assay [1], the “Gait versus model group, in words” value is on record as “significant improvement in gait occurred at different time points”. The change in vivo at 0.6 mg/kg in assay [2] (2 h) was found to be 6.34%; in assay [2] (4 h), 12.6%; in assay [2] (8 h), 10.4%; in assay [2] (10 h), 17.9%; in assay [2] (24 h), 16.9%; in assay [2] (48 h) it was 6.71%. In addition, the inhibition in vivo at 0.6 mg/kg with TNF-α stood at 86.6%; with IL-1β, 102%; with IL-6, 69%.

In the case of `CNC(=O)c1ccc2c(cc1=O)[C@@H](NC(C)=O)CCc1cc(OC)c(O)c(OC)c1-2` [Compound 121, (S)-7-acetamido-2-hydroxy-1,3-dimethoxy-N-methyl-9-oxo-5,6,7,9-tetrahydrobenzo[a]heptalen-10-carboxamide], the “Gait Score” value is reported as 0 in assay [1] (2 h); 0 in assay [1] (4 h); 0.2 in assay [1] (8 h); 0.2 in assay [1] (10 h); 0 in assay [1] (24 h); 0 in assay [1] (48 h). The change in vivo at 0.6 mg/kg in assay [2] (2 h) was 11.8%; in assay [2] (4 h), 15.6%; in assay [2] (8 h), 20.9%; in assay [2] (10 h) it was 22.5%; in assay [2] (24 h), 16.3%; in assay [2] (48 h), 9.4%. For the same molecule, the inhibition in vivo at 0.6 mg/kg was 119% in the assay on TNF-α, 67.7% in the assay on IL-1β and 231% in the assay with IL-6.

For the molecule `COc1cc2c(c(OC)c1OC)-c1ccc(S(N)(=O)=O)c(=O)cc1[C@@H](NC(C)=O)CC2` [Compound 69, (S)—N-[1,2,3-trimethoxy-9-oxo-10-aminosulfonyl-5,6,7,9-tetrahydrobenzo[a]heptalen-7-yl]acetamide], the “Gait Score” value is given as 0 in assay [1] (2 h); 0 in assay [1] (4 h); 0* in assay [1] (8 h); 0* in assay [1] (10 h); 0 in assay [1] (24 h); 0 in assay [1] (48 h). Also, the “Gait versus model group, in words” value in assay [1] is recorded as “significant improvement in gait occurred at different time points”. Further, the change in vivo at 0.6 mg/kg came to 5.65% in assay [2] (2 h); 7.01% in assay [2] (4 h); 14.7% in assay [2] (8 h); 26.8% in assay [2] (10 h); 19% in assay [2] (24 h); 5.21% in assay [2] (48 h). For the same molecule, the inhibition in vivo at 0.6 mg/kg worked out at 76.1% in the assay with TNF-α, 110% with IL-1β and 83% in the assay with IL-6.

As for `COc1cc2c(c(OC)c1OC)-c1ccc(=O)c(O[C@H]3CCOC3)cc1[C@@H](NC(C)=O)CC2` [Compound 19, N—{(S)-1,2,3-trimethoxy-10-oxo-9-{[(S)-tetrahydrofuran-3-yl]oxy}-5,6,7,10-tetrahydrobenzo[a]heptalen-7-yl}acetamide], the “Gait Score” value in assay [1] (2 h) is reported as 0.0; in assay [1] (4 h), 0; in assay [1] (8 h) it was 0**; in assay [1] (10 h), 0**; in assay [1] (24 h) it was 0.2; in assay [1] (48 h), 0.1. Moreover, the “Gait versus model group, in words” value in assay [1] is given as “significant improvement in gait occurred at different time points”. Also, the change in vivo at 0.6 mg/kg in assay [2] (2 h) turned out to be 8.77%; in assay [2] (4 h), 10.9%; in assay [2] (8 h), 17.1%; in assay [2] (10 h), 14.1%; in assay [2] (24 h) it was 19.4%; in assay [2] (48 h), 7.77%. Besides, the inhibition in vivo at 0.6 mg/kg in the assay with TNF-α is 84.7%; in the assay on IL-1β, 81.5%; with IL-6, 98.1%.
